The source of these data is US10464896B2, “Efflux-pump inhibitors and therapeutic uses thereof” (Basilea Pharmaceutica International AG, priority 2015, dated 2019).

The test deals with E. coli ATCC25922. The test can be described thus: Antibacterial activity in combination with minocycline (growth inhibition). The format is cell-based. The note with it: Escherichia coli, minocycline 0.25 μg/mL, OD625 23 h minus 1 h, read-out: residual growth of E. coli ATCC25922 (% of uninhibited control) with minocycline; for activity at 25 µM: ATCC25922, compound at 25 μM; for activity at 50 µM: ATCC25922, compound at 50 μM. Here is the method:
Antibacterial activity in combination with minocycline or with linezolid
Inhibition of growth was measured with E. coli ATCC25922 and P. aeruginosa PAO1 in a 96-well plate format. Cation-adjusted Müller-Hinton broth (caMHB) was inoculated with an overnight culture and incubated at 37° C. on a shaker until OD625 reached 0.6 to 0.7. Density was adjusted to OD600=0.5 by addition of caMHB. 35 μL of the suspension were diluted to 35 mL with caMHB and supplemented with minocycline at the subinhibitory doses of 0.25 μg/mL for E. coli and 8 μg/mL for P. aeruginosa or with linezolid at the subinhibitory dose of 128 μg/mL for E. coli and P. aeruginosa. Each well contained 1 μL of test compound in 100 μL caMHB with minocycline or with linezolid.
Plates were incubated at 37° C. on a plate shaker. OD625 was measured at 1 h, 6 h, and at 23 h.
The difference between OD at 23 h and at 1 h was taken as measure for cell density and compared to controls without inhibitor (i.e. uninhibited control). Results were expressed as residual growth (% of uninhibited control). Enhancement of minocycline or linezolid activity caused reduced residual growth.

Consider `Clc1cc(CNCC2CNC2)cc(OCc2ccc(Cl)cc2Br)c1` [Example 37, N-(azetidin-3-ylmethyl)-1-[3-[(2-bromo-4-chloro-phenyl)methoxy]-5-chloro-phenyl]methanamine], for which the activity at 25 µM is at most 10%.

For `N#Cc1cncc(/C=C/c2cc(OCc3ccccc3)cc(CNCC3CCNC3)n2)c1` (stereo not drawn) [Example 446], the activity at 25 µM is at most 10%.

Consider `Brc1ccccc1COc1ccc(CNC2CCNCC2)cc1` [Example 71], for which the activity at 25 µM was at most 10%.

With `Clc1ccc(COc2ccc(OCCc3c[nH]cn3)c(CNCC3CNC3)c2)c(Br)c1` [Example 465], the activity at 25 µM was at most 10%. For the compound `C=CCOc1ccc(OCc2ccc(Br)cc2Cl)cc1CNCC1CCNC1` (stereo not drawn) [Example 405], the activity at 25 µM was at most 10%. With `Clc1ccc(COc2cc(CNCC3CNC3)cc(OCCN3CCOCC3)c2)c(Br)c1` [Example 239], the activity at 25 µM is at most 10%. The same measure, in the same setting: next, `C=CCOc1cc(CNCC2CCNCC2)cc(OCc2ccc(Cl)cc2Br)c1` [Example 109]: at most 10%. As to `Clc1ccc(COc2cccc(NCC3CNC3)c2)cc1` [Example 23, N-(azetidin-3-ylmethyl)-3-[(4-chlorophenyl)methoxy]aniline], the activity at 50 µM is at most 50%. Take `COC(=O)c1ccc(COc2cc(CNCC3CCNC3)cc(OCc3ccc(Cl)cc3Br)c2)cc1` (stereo not drawn) [Example 197]: the activity at 25 µM was at most 10%. `CC(C)COc1cc(CNCC2CCNC2)cc(OCc2ccc(C(C)(C)C)cc2Br)c1` (stereo not drawn) [Example 290]: the activity at 25 µM is at most 10%. Regarding `C=CCOc1cc(/C=C/c2ccc(Cl)cc2Br)cc(CNCCN(CC2CNC2)CC2CNC2)c1` [Example 455], the activity at 25 µM was at most 10%. For `Clc1ccc(COc2ccccc2CNCC2CNC2)cc1` [Example 22], the activity at 50 µM is at most 50%. With `C=CCOc1cc(/C=C/c2ccc(Cl)cc2Br)cc(CNC(=O)C[N+](C)(C)CC2CNC2)c1` [Example 452], the activity at 25 µM is at most 10%.

`CC(C)COc1cc(CNCC2CCNC2)cc(OCc2cccnc2Br)c1` (stereo not drawn) [Example 278]: the activity at 50 µM was at most 50%.

Regarding `C=CCOc1cc(CNCC2CNC2)cc(OCCc2ccncc2)c1` [Example 423], the activity at 50 µM was at most 50%. Consider `Clc1ccc(/C=C/c2cc(Cl)ccc2OCCNCC2CNC2)c(Br)c1` [Example 209], for which the activity at 25 µM was at most 10%. Turning to `Clc1ccc(COc2cccc(CNCC3CNC3)c2)c(I)c1` [Example 229], the activity at 25 µM is at most 10%. For `Clc1ccc(COc2cccc(CNCC3CCNC3)c2)c(Br)c1` (stereo not drawn) [Example 30], the activity at 25 µM was at most 10%.

As to `Fc1cc(Br)ccc1COc1ccc(CNCC2CCNCC2)cc1` [Example 52], the activity at 25 µM is at most 10%. Same read-out and setting: next, `CC(C)COc1cc(/C=C/c2ccncc2)cc(CNCC2CCNC2)c1` (stereo not drawn) [Example 334]: at most 10%; `Clc1ccc(/C=C/c2cc(CNCC3CCNC3)cc(OCCc3c[nH]cn3)c2)c(Br)c1` (stereo not drawn) [Example 262]: at most 10%; `Cc1nc(COc2cc(/C=C/c3ccc(Cl)cc3Br)cc(CNCC3CCNC3)c2)cs1` (stereo not drawn) [Example 359]: at most 10%. As for `Fc1cc(Br)ccc1COc1ccc(CNCC2CNC2)cc1` [Example 56], the activity at 25 µM is at most 10%.

`C=CCOc1cc(/C=C/c2ccc(Cl)cc2Br)cc(C(=O)N(CC2CNC2)CC2CNC2)c1` [Example 456]: the activity at 25 µM was at most 10%. Regarding `CC(C)(C)c1ccc(/C=C\c2cccc(CNC3CCNCC3)c2)cc1` [Example 235], the activity at 25 µM was at most 10%. Take `Clc1ccc(COc2cc(CNCC3CNC3)cc(OCCc3ccncc3)c2)c(Br)c1` [Example 256]: the activity at 25 µM is at most 10%. With `Ic1ccccc1COc1cccc(CNCC2CNC2)c1` [Example 195], the activity at 50 µM is at most 50%. Consider `Nc1nc(COc2cc(/C=C/c3ccc(Cl)cc3Br)cc(CNCC3CCNC3)c2)cs1` (stereo not drawn) [Example 361], for which the activity at 25 µM is at most 10%. `O=c1[nH]nc(COc2cc(/C=C/c3ccc(Cl)cc3Br)cc(CNCC3CCNC3)c2)o1` (stereo not drawn) [Example 381]: the activity at 25 µM is at most 10%. Consider `Clc1ccc(COc2ccc(CCCNCC3CCNC3)cc2)c(Br)c1` (stereo not drawn) [Example 117], for which the activity at 25 µM is at most 10%.

As to `CC(C)COc1cc(CNCC2CCNC2)cc(OCc2ccc(Cl)cc2C(F)(F)F)c1` (stereo not drawn) [Example 281], the activity at 25 µM was at most 10%.

Consider `C=CCOc1cc(CNCC2CNC2)cc(C(=O)Nc2ccc(Cl)cc2Br)c1` [Example 394, 3-allyloxy-5-[(azetidin-3-ylmethylamino)methyl]-N-(2-bromo-4-chloro-phenyl)benzamide], for which the activity at 25 µM was at most 10%. `Clc1ccc(COc2ccccc2CCNCC2CNC2)c(Br)c1` [Example 125]: the activity at 25 µM was at most 10%. As for `C=CCOc1cc(/C=C/c2ccc(C(F)(F)F)c(C#N)c2)cc(CNCC2CNC2)c1` [Example 321], the activity at 25 µM is at most 10%. Take `Cc1n[nH]c(C)c1CCOc1cc(/C=C/c2ccc(Cl)cc2Br)cc(CNCC2CCNC2)c1` (stereo not drawn) [Example 433]: the activity at 25 µM is at most 10%.

With `N[C@@H]1CN[C@@H](CNCc2cccc(/C=C/c3ccc(Cl)cc3Br)c2)C1` [Example 171], the activity at 25 µM was at most 10%.

`C=CCOc1cc(/C=C/c2ccc(Cl)cc2Br)cc(CNCC2CCNC2)c1` (stereo not drawn) [Example 178]: the activity at 25 µM was at most 10%.

As to `Clc1cc(Cl)cc(COc2cccc(CNCC3CNC3)c2)c1` [Example 40], the activity at 25 µM was at most 10%. With `CC(C)(C)c1cc(CNCC2CNC2)cc(OCc2ccc(Cl)cc2Br)c1` [Example 225], the activity at 25 µM was at most 10%. On to `N#Cc1ccc(/C=C/c2cccc(CNCC3CCNC3)c2)cc1C(F)(F)F` (stereo not drawn) [Example 301], for which the activity at 25 µM was at most 10%. On to `C=CCOc1cc(CNCC2CCNC2)cc(CSc2ccc(Cl)cc2C(F)(F)F)c1` (stereo not drawn) [Example 184], for which the activity at 25 µM was at most 10%. Consider `Clc1ccc(/C=C/c2cc(CNCC3CCNC3)cc(OCc3ccncc3)c2)c(Br)c1` (stereo not drawn) [Example 360], for which the activity at 25 µM is at most 10%. Take `CC(C)COc1cc(CNCC2CCNC2)cc(OCc2ccc(C(F)(F)F)cc2Br)c1` (stereo not drawn) [Example 282]: the activity at 25 µM is at most 10%. The same measure, in the same setting: as for `C=CCOc1cc(/C=C/c2ccncc2)cc(CNCC2CNC2)c1` [Example 338], the figure is at most 10%; as for `Clc1ccc(COc2ccccc2CCNCC2CCNC2)c(Br)c1` (stereo not drawn) [Example 123], at most 10%. On the same count and under the same terms, next, `C=CCOc1cc(/C=C/c2ccc(C(C)(C)C)cc2)cc(CNCC2CNC2)c1` [Example 292]: at most 10%. Same read-out and setting: next, `C=CCOc1cc(/C=C/c2nc(C3CC3)cs2)cc(CNCC2CCNC2)c1` (stereo not drawn) [Example 355]: at most 10%; `Clc1ccc(/C=C/c2cc(OCc3ccncc3)ccc2OCCCNCC2CNC2)c(Br)c1` [Example 519]: at most 10%. In the case of `O=C(NCCNC(=O)C1CNC1)c1cc(/C=C/c2ccc(Cl)cc2Br)cc(OCCc2ccncc2)c1` [Example 515], the activity at 25 µM was at most 10%. Take `Brc1ccc(/C=C/c2ccccc2)cc1OCCCNCC1CNC1` [Example 120]: the activity at 25 µM was at most 10%. The same measure, in the same setting: next, `C=CCOc1cc(/C=C/c2ccc(C#N)cn2)cc(CNCC2CCNC2)c1` (stereo not drawn) [Example 307]: at most 10%. As for `C=CCOc1cc(CNCC2CCNC2)cc(OCCc2cccnc2)c1` (stereo not drawn) [Example 418], the activity at 50 µM is at most 50%. Consider `Clc1ccc(/C=C/c2cc(CNCC3CCNC3)cc(OCc3ccccc3)c2)c(Br)c1` (stereo not drawn) [Example 181], for which the activity at 25 µM is at most 10%. Consider `O=C(NCc1ccccc1)c1cc(CNCC2CNC2)cc(OCc2ccc(Cl)cc2Br)c1` [Example 119, 3-[(azetidin-3-ylmethylamino)methyl]-N-benzyl-5-[(2-bromo-4-chloro-phenyl)methoxy]-benzamide], for which the activity at 25 µM is at most 10%.

Turning to `COc1cc(C#N)ccc1COc1cc(CNCC2CCNC2)cc(OCC(C)C)c1` (stereo not drawn) [Example 266], the activity at 25 µM was at most 10%.

In the case of `CC(C)(c1ccccc1)c1ccc(CNCC2CCNC2)cc1` (stereo not drawn) [Example 44], the activity at 25 µM was at most 10%. In the case of `C[N+](C)(Cc1cc(/C=C/c2ccc(Cl)cc2Br)cc(OCCc2c[nH]cn2)c1)CC1CNC1` [Example 408], the activity at 25 µM was at most 10%. On the same count and under the same terms, next, `Clc1ccc(COc2ccc(CNCC3CCNC3)cc2)cc1Cl` (stereo not drawn) [Example 70]: at most 10%; `CC(C)c1cc(CNCC2CNC2)cc(OCc2ccc(Cl)cc2Br)c1` [Example 224]: at most 10%. In the case of `Clc1ccc(COc2ccccc2CNCC2CCNCC2)cc1` [Example 5], the activity at 50 µM is at most 50%.

As for `Clc1ccc(/C=C\c2cc(CNCC3CNC3)cc(OCCc3c[nH]cn3)c2)c(Br)c1` [Example 255], the activity at 25 µM is at most 10%. Consider `Clc1ccc(/C=C/c2ccc(Cl)cc2OCCCNCC2CCNC2)c(Br)c1` (stereo not drawn) [Example 185], for which the activity at 25 µM was at most 10%. Consider `CC(C)(C)c1ccc(COc2cc(Cl)cc(CNCC3CNC3)c2)cc1` [Example 228], for which the activity at 25 µM is at most 10%.

As to `FC(F)(F)c1ccc(COc2cccc(CNCC3CNC3)c2)c(Cl)c1` [Example 49], the activity at 25 µM is at most 10%. As for `Clc1ccc(COc2cccc(CNCC3CNC3)c2)cc1` [Example 13], the activity at 50 µM was at most 50%. For `Ic1ccc(COc2cccc(CNCC3CCNC3)c2)cc1` (stereo not drawn) [Example 207], the activity at 25 µM is at most 10%.
